In brackets after ≈: the same amount, converted by molar mass. Structures can show the parent of a compound that is named as a salt. Where two headings read alike, the source gives them in different places.
Tests used:
[1] = tested on: ADP induced platelet aggregation; test: In vitro inhibition of ADP induced platelet aggregation (aggregometer method of Born, modified by Mustard); format: cell-based, rabbit; details: Oryctolagus cuniculus
Method: (§1) The aggregometer method of Born [G. V. R. Born: J.Physiol., London, 162, 67 (1962)] as modified by Mustard et al. [J. F. Mustard et al.: J.Lab.Clin.Med., 64, 548 (1964)] was used to assess the in vitro activity of various compounds as to inhibition of collagen and adenosine diphosphate (ADP) induced platelet aggregation. Platelet rich plasma (PRP) was separated by centrifugation from citrated (3.8%) rabbit blood. ADP in final concentration of […] prepared according to the method described by Evans et al. [G. Evans et al.: J.Exp. Med., 128, 877 (1968)] was used to induce aggregation. The test compounds were dissolved in buffer solution so that 0.05 ml added to PRP would yield the desired test concentration. Vehicle control trials were done and compared with aggregation induced in platelet rich plasma containing various concentrations of the test compounds. Dose response curves were obtained, and 50% inhibitive concentration (IC50) values were calculated.

[2] = tested on: collagen induced platelet aggregation; test: In vitro inhibition of collagen induced platelet aggregation (aggregometer method of Born, modified by Mustard); format: cell-based, rabbit; details: Oryctolagus cuniculus
Method: as §1

[3] = tested on: Neuroleptic activity (Anti apomorphine test); test: Neuroleptic activity (anti apomorphine test); format: in vivo, rat; details: for neuroleptic activity, in words: rat, in vivo
Source text: No. ED50 (rat, s.c., mg/kg)
*P. A. J. Janssen et al.: ArzneimittelForschung, 15, 104-117 (1965)

[4] = tested on: collagen induced platelet aggregation; test: Ex vivo inhibition of collagen induced aggregation in PRP after oral administration to rats; details: Rattus norvegicus, PRP 1 hour after oral administration, read-out: ED50, 50% inhibition of the aggregation (collagen)
Method: (§2) The conjugated ketone compounds [I] were also tested ex vivo in rats where ADP or collagen was used to induce aggregation in PRP samples obtained 1 hour after oral administration. Blood was drawn after dosing and the procedure of platelet aggregation was the same as the in vitro experiments. Inhibitory values were calculated compared with the activity of PRP samples of vehicle treated rats. The dose required to produce 50% inhibition of the aggregation (ED50) was determined by dose response data obtained in this manner.

[5] = tested on: blood platelet aggregation; test: Blood platelet anti-aggregation activity (general statements); format: cell-based, rabbit; details: compared with compound [A] / compounds of U.S. Pat. No. 4,012,515
Method: as §1

[6] = tested on: ADP induced platelet aggregation; test: Ex vivo inhibition of ADP induced aggregation in PRP after oral administration to rats; details: Rattus norvegicus, PRP 1 hour after oral administration, read-out: ED50, 50% inhibition of the aggregation (ADP)
Method: as §2

[7] = in vitro, ADP, Table 2, read-out: Blood platelet aggregation inhibitory activity IC50, ADP
[8] = in vitro, Collagen, Table 2, read-out: Blood platelet aggregation inhibitory activity IC50, Collagen
[9] = in vitro, rabbit PRP, ADP induced, Table 1, read-out: Inhibitory activity IC50, ADP
[10] = in vitro, rabbit PRP, collagen induced, Table 1, read-out: Inhibitory activity IC50, Collagen

Compound | IC50 [1, 9] [µg/mL] | IC50 [2, 10] [µg/mL] | further results
O=C(/C=C/CN1CCC(O)(c2cccc(C(F)(F)F)c2)CC1)c1ccc(F)cc1 [A, reference compound] |  |  | IC50 [1, 7]: 9 µg/mL (≈ 22.1 µM); IC50 [2, 8]: 3.5 µg/mL (≈ 8.59 µM); ED50 ([3]; Rattus norvegicus, sc, read-out: Neuroleptic activity (Anti apomorphine test) ED50): 0.1 mg/kg
CN(C)C/C=C/C(=O)c1ccccc1 [Compound 1] | 3.3 (≈ 17.4 µM) | 2 (≈ 10.6 µM) | 
CCN(C)C/C=C/C(=O)c1ccccc1 [Compound 2] | 3 (≈ 14.8 µM) | 2.2 (≈ 10.8 µM) | 
CCN(CC)C/C=C/C(=O)c1ccccc1 [Compound 3, N-(4-Phenyl-4-oxo-2-trans-butenyl)-N,N-diethylamine hydrobromide] | 3.3 | 1.5 | ED50 [4]: 3 mg/kg; blood platelet anti-aggregation activity, in words [5]: more potent than the compound [A] in blood platelet anti-aggregation activity; IC50 [1, 7]: 3.3 µg/mL; IC50 [2, 8]: 1.5 µg/mL; neuroleptic activity, in words [3]: does not produce any slight degree of neuroleptic activity; neuroleptic activity, in words ([3]; sc): No effect at 10 mg/kg; ED50 [6]: 0.3 mg/kg
CCCN(C/C=C/C(=O)c1ccccc1)CCC [Compound 4] | 2.5 (≈ 10.2 µM) | 1.3 (≈ 5.3 µM) | 
CC(C)N(C/C=C/C(=O)c1ccccc1)C(C)C [Compound 5] | 3.7 (≈ 15.1 µM) | 1.6 (≈ 6.52 µM) | 
CCCCN(C/C=C/C(=O)c1ccccc1)CCCC [Compound 6] | 5.2 (≈ 19 µM) | 2.7 (≈ 9.87 µM) | 
CN(C/C=C/C(=O)c1ccccc1)C12CC3CC(CC(C3)C1)C2 [Compound 7] | 3.6 (≈ 11.6 µM) | 2.4 (≈ 7.76 µM) | 
CN(C/C=C/C(=O)c1ccccc1)C1CCCCC1 [Compound 8] | 1.8 (≈ 6.99 µM) | 3.7 (≈ 14.4 µM) | 
O=C(/C=C/CN1CCCC1)c1ccccc1 [Compound 9] | 2.5 (≈ 11.6 µM) | 1.2 (≈ 5.57 µM) | 
O=C(/C=C/CN1CCCCC1)c1ccccc1 [Compound 10] | 5.2 (≈ 22.7 µM) | 3.2 (≈ 14 µM) | ED50 [4]: 2 mg/kg
CCN(CC)CC/C=C/C(=O)c1ccccc1 [Compound 11] | 6 (≈ 25.9 µM) | 1.8 (≈ 7.78 µM) | 
CCN(CC)C/C=C/C(=O)c1ccccc1Cl [Compound 12] | 3.1 (≈ 12.3 µM) | 2.8 (≈ 11.1 µM) | 
O=C(/C=C/CN1CCCCC1)c1cccc(Cl)c1 [Compound 13] | 3.1 (≈ 11.8 µM) | 3.1 (≈ 11.8 µM) | 
CCN(CC)C/C=C/C(=O)c1ccc(Cl)cc1 [Compound 14] | 1.6 (≈ 6.36 µM) | 2.5 (≈ 9.93 µM) | 
O=C(/C=C/CN1CCCCC1)c1ccc(Cl)cc1 [Compound 15] | 4.8 (≈ 18.2 µM) | 1.6 (≈ 6.07 µM) | 
O=C(/C=C/CN1CCCCC1)c1ccc(Br)cc1 [Compound 16] | 3.2 (≈ 10.4 µM) | 3 (≈ 9.73 µM) | 
CCN(CC)C/C=C/C(=O)c1ccc(C)cc1 [Compound 17] | 2.3 (≈ 9.94 µM) | 1.5 (≈ 6.48 µM) | 
Cc1ccc(C(=O)/C=C/CN2CCCCC2)cc1 [Compound 18] | 2 (≈ 8.22 µM) | 3.4 (≈ 14 µM) | 
CCN(CC)C/C=C/C(=O)c1ccc(OC)cc1 [Compound 19] | 3.7 (≈ 15 µM) | 3.5 (≈ 14.2 µM) | 
CCN(CC)C/C=C/C(=O)c1ccc2c(c1)OCO2 [Compound 20] | 1.3 (≈ 4.97 µM) | 3.7 (≈ 14.2 µM) | 
O=C(/C=C/CN1CC2CCC(CC2)C1)c1ccccc1 [Compound 36] | 2.7 (≈ 10 µM) | 1.2 (≈ 4.45 µM) | 
COc1ccc(Cc2nccc3cc(OC)c(OC)cc23)cc1OC [Papaverine, reference compound] |  |  | IC50 ([1]; read-out: Inhibitory activity IC50, ADP): 65 µg/mL (≈ 192 µM); IC50 ([2]; read-out: Inhibitory activity IC50, Collagen): 60 µg/mL (≈ 177 µM)

Further lines, with some results ahead:

IC50 [1, 9] [µg/mL] | IC50 [2, 10] [µg/mL] | Compound | further results
3.2 (≈ 11.6 µM) | 3.7 (≈ 13.4 µM) | CSc1ccccc1C(=O)/C=C/CN1CCCCC1 [Compound 21] | 
1.2 (≈ 5.1 µM) | 2.2 (≈ 9.35 µM) | CSc1ccc(C(=O)/C=C/CN(C)C)cc1 [Compound 22] | 
1.4 (≈ 5.31 µM) | 2.4 (≈ 9.11 µM) | CCN(CC)C/C=C/C(=O)c1ccc(SC)cc1 [Compound 23] | 
3.6 (≈ 12.4 µM) | 2.6 (≈ 8.92 µM) | CCCN(C/C=C/C(=O)c1ccc(SC)cc1)CCC [Compound 24] | 
3 (≈ 11.5 µM) | 1.1 (≈ 4.21 µM) | CSc1ccc(C(=O)/C=C/CN2CCCC2)cc1 [Compound 25] | 
1.2 (≈ 4.36 µM) | 1.5 (≈ 5.45 µM) | CSc1ccc(C(=O)/C=C/CN2CCCCC2)cc1 [Compound 26] | 
3 (≈ 10.5 µM) | 4.2 (≈ 14.7 µM) | CCN(CC)C/C=C/C(=O)c1ccccc1C(F)(F)F [Compound 27] | 
2.7 (≈ 9.08 µM) | 3.1 (≈ 10.4 µM) | O=C(/C=C/CN1CCCCC1)c1ccc(C(F)(F)F)cc1 [Compound 28] | 
1.25 (≈ 4.68 µM) | 1.7 (≈ 6.36 µM) | CCN(CC)C/C=C/C(=O)c1ccc2ccccc2c1 [Compound 29] | 
2.2 (≈ 7.87 µM) | 2.2 (≈ 7.87 µM) | O=C(/C=C/CN1CCCCC1)c1ccc2ccccc2c1 [Compound 30] | 
3 (≈ 14.5 µM) | 1.8 (≈ 8.68 µM) | CCN(CC)C/C=C/C(=O)c1ccco1 [Compound 31] | 
4.5 (≈ 18 µM) | 5.8 (≈ 23.3 µM) | CCCCCCN(C)C/C=C/C(=O)c1ccco1 [Compound 32] | 
3.8 (≈ 17.3 µM) | 2.2 (≈ 10 µM) | O=C(/C=C/CN1CCCCC1)c1ccco1 [Compound 33] | 
3 (≈ 13.4 µM) | 2.3 (≈ 10.3 µM) | CCN(CC)C/C=C/C(=O)c1cccs1 [Compound 34] | 
2.8 (≈ 11.9 µM) | 1.8 (≈ 7.65 µM) | O=C(/C=C/CN1CCCCC1)c1cccs1 [Compound 35] | 

From patent US4418079A, “Conjugated ketone compounds in preventing platelet thrombosis” (Sumitomo Chemical Company, Limited, priority 1978, dated 1983)
